# Data reported in patent US11612587B2, “Composition for preventing or treating hair loss” (KYUNGPOOK NATIONAL UNIVERSITY INDUSTRY-ACADEMIC COOPERATION …, priority 2018, dated 2023).
# Experiments:
# human hair follicles [1] = test: recovery of human hair follicle growth inhibition by 15d-PGJ2 in human hair follicle tissue culture; assay type: cell-based; settings: for hair follicle growth (hair follicle length when 15d-PGJ2 was treated alone as 100%): 6 days culture, FIG. 5
# Method: (§1) Human hair tissue was provided from the hair transplant center of Kyungpook National University and used for the experiment by separating the hair follicles from the scalp tissue with the consent of the hair transplant patient (IRB project number: KNUH2014-02-023). After treatment of each compound, human hair tissue was prepared by incubating a 37° C. CO2 incubator for 6 days using Williams E media (Sigma, USA) containing 2 mM L-glutamine, 100 U/ml streptomycin, and 10 ng/ml hydrocortisone and the length of growth was measured using a microscope.
# (§2) The data from the above experiments were expressed as mean±SEM. For statistical processing, the mean deviation of each group was measured using Student's t-test, and it was considered significant at p<0.005 and p<0.05.
# human hair follicles [2] = test: toxicity / growth of cultured human hair follicle tissue treated with the compound alone; assay type: cell-based; settings: 6 days culture
# Method: as §1, §2
compound,measurement,setting,value
O=C(O)CN1C(=O)C2(CC(=O)N(Cc3cc(Cl)ccc3F)C2=O)c2cc(Cl)ccc21 (stereo not shown) [Compound 1],hair follicle growth (hair follicle length when 15d-PGJ2 was treated alone as 100%),human hair follicles [1]; 0.1 nM compound simultaneously with 15d-PGJ2 (10 μM),108%
same,hair follicle growth (hair follicle length when 15d-PGJ2 was treated alone as 100%),human hair follicles [1]; 1 nM compound simultaneously with 15d-PGJ2 (10 μM),194%
same,hair follicle growth (hair follicle length when 15d-PGJ2 was treated alone as 100%),human hair follicles [1]; 10 nM compound simultaneously with 15d-PGJ2 (10 μM),234%
same,toxicity in human hair follicle tissue (hair follicle growth vs untreated group),"human hair follicles [2]; compound alone at 0.1-10 nM, FIG. 4",no significant difference
CC(C)(C)OC(=O)CN1C(=O)C2(CCNC2=O)c2cc(Cl)ccc21 (stereo not shown) [Compound 2],hair follicle growth inhibited by 15d-PGJ2,"human hair follicles [1]; Compound 2 0.5 μM, 1 μM simultaneously with 15d-PGJ2 (10 μM), vs 15d-PGJ2 only, FIG. 7",significantly increased
same,toxicity in human hair follicle tissue (hair follicle growth vs untreated group),"human hair follicles [2]; compound alone at 0.1 to 10 μM, FIG. 6",no significant difference
"CCCCC/C=C/C=C1/C(=O)C=C[C@@H]1C/C=C\CCCC(=O)O [Compound 15d-PGJ2, 15-deoxy-Δ^12,14-prostaglandin J2, reference compound]",decrease of hair follicle growth,"human hair follicles [2]; 15d-PGJ2 alone at 10 μM, FIG. 1",⅓
